# Laboratory results published in patent publication US20180071317A1, “USE OF AGENTS THAT ALTER THE PERITUMORAL ENVIRONMENT FOR THE TREATMENT OF CANCER” (SERVICIO ANDALUZ DE SALUD, priority 2011, published 2018).
# Assays:
# [1] = system: fibroblasts (PHF) co-cultured with tumor cells of lung carcinoma (A-427); test: Marker expression (IHC) in PHF co-cultured with A-427 tumor cells; type: cell-based, human; conditions: co-culture with A-427 lung carcinoma; SP 1 μM + antagonist 1 μM; 48 h;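 also: cultures grown in human blood plasma from a healthy donor, value is the percentage of fibroblasts positive for each marker, six replicates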
# Experimental: (§1) All cultures were maintained 48 hours, following which the same cells were included in paraffin blocks for subsequent analysis of the expression of different markers by immunohistochemistry (see Example 1). […] All experiments were carried out sixfold. Analyzed markers in fibroblast cells (stromal cells) were: TGF-α, TGF-β1, TGF-β2, TGF-β3, SPARC, MMP-3, MMP-7, MMP-9, MMP-11, MMP-13 and MMP-14.
# [2] = system: tumors from the tumor cell lines of Table 9; test: Mean tumor volume in nude mice injected subcutaneously with human tumor cells; conditions: 30 mg/kg/day oral, 7 days
# [3] = system: fibroblasts (PHF) co-cultured with tumor cells of human Burkitt lymphoma (CA-46); test: Marker expression (IHC) in PHF co-cultured with CA-46 tumor cells; type: cell-based; conditions: PHF co-cultured with CA-46 + SP + NK1 antagonist;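 also: percentage of PHF fibroblasts positive for each marker, cultures grown in fresh human plasma from a healthy donor, six replicates, compared with fibroblasts cultured alone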
# Experimental: All cultures were maintained 48 hours, following which the same cells were included in paraffin blocks for subsequent analysis of the expression of different markers by immunohistochemistry (see Example 1). The primary antibodies used to perform immunohistochemical assays and their concentration are detailed in Example 2. All experiments were carried out sixfold. Analyzed markers in fibroblast cells (stromal cells) were: TGF-α, TGF-β1, TGF-β2, TGF-β3, SPARC, MMP-3, MMP-7, MMP-9, MMP-11, MMP-13 and MMP-14.
# [4] = system: fibroblasts (PHF) co-cultured with tumor cells of human pancreatic adenocarcinoma (CAPAN-1); test: Marker expression (IHC) in PHF co-cultured with CAPAN-1 tumor cells; type: cell-based; conditions: co-culture with CAPAN-1; SP 1 μM + antagonist 1 μM; 48 h;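 also: cultures grown in fresh plasma from a healthy human donor, run in six replicates, value is percent of fibroblasts positive for each marker, compared with fibroblasts cultured alone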
# [5] = system: fibroblasts (PHF) co-cultured with tumor cells of human gastric adenocarcinoma (23132/87); test: Marker expression (IHC) in PHF co-cultured with 23132/87 tumor cells; type: cell-based; conditions: co-culture with 23132/87; SP 1 μM + antagonist 1 μM; 48 h;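 also: cultures grown in fresh plasma from a healthy human donor, values give the percentage of PHF fibroblasts positive for the marker, each experiment run in six replicates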
# [6] = system: fibroblasts (PHF) co-cultured with human fibrosarcoma tumor cells (HT-1080); test: Marker expression (IHC) in PHF co-cultured with HT-1080 tumor cells; type: cell-based; conditions: co-culture with HT-1080; SP 1 μM + antagonist 1 μM; 48 h;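 also: cultures grown in fresh human plasma from a healthy donor, six replicates, value is percent of fibroblasts positive for the marker, compared with fibroblasts cultured without tumor cells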
# Experimental: as §1
# [7] = system: fibroblasts (PHF) co-cultured with tumor cells of human Edwing sarcoma (MHH-ES-1); test: Marker expression (IHC) in PHF co-cultured with MHH-ES-1 tumor cells; type: cell-based; conditions: PHF co-cultured with MHH-ES-1 + SP + NK1 antagonist
# Experimental: as §1
smiles,measurement,setting,value
CC(=O)N1CCN([C@H]2CCN(C(=O)N(C)[C@H](C)c3cc(C(F)(F)F)cc(C(F)(F)F)c3)[C@@H](c3ccc(F)cc3C)C2)CC1 [Casopitant],PHF cells expressing MMP-3,[1],0%
same,PHF cells expressing MMP-7,[1],0%
same,PHF cells expressing MMP-9,[1],0%
same,PHF cells expressing MMP-11,[1],0%
same,PHF cells expressing MMP-13,[1],0%
same,PHF cells expressing MMP-14,[1],0%
same,PHF cells expressing SPARC,[1],0%
same,PHF cells expressing TGF-α,[1],0%
same,PHF cells expressing TGF-β1,[1],0%
same,PHF cells expressing TGF-β2,[1],0%
same,PHF cells expressing TGF-β3,[1],0%
same,Mean tumor volume,[2]; B lymphoblastic leukemia (peripheral human B lymphoblastoid cells) SD1,109 ± 8
same,Mean tumor volume,[2]; Carcinoma of human non-small cell lung COR-L23,119 ± 5
same,Mean tumor volume,[2]; Carcinoma of human non-small cell lung H-1963,97 ± 3
same,Mean tumor volume,[2]; Carcinoma of human non-small cell lung HCC-44,101 ± 8
same,Mean tumor volume,[2]; Carcinoma of human small cell lung H-209,114 ± 7
same,Mean tumor volume,[2]; Carcinoma of human urinary bladder 5637,100 ± 2
same,Mean tumor volume,[2]; Human B lymphoma BC-1,83 ± 11
same,Mean tumor volume,[2]; Human Burkitt lymphoma CA-46,94 ± 9
same,Mean tumor volume,[2]; Human Fibrosarcoma HT-1080,89 ± 4
same,Mean tumor volume,[2]; Human Hodgkin lymphoma KM-H2,86 ± 7
same,Mean tumor volume,[2]; Human Rhabdomyosarcoma A-204,98 ± 5
same,Mean tumor volume,[2]; Human T-cell leukemia/NK YT,102 ± 7
same,Mean tumor volume,[2]; Human T-lymphoma DERL human Hodgkin 7Linfoma KM-H2,97 ± 6
same,Mean tumor volume,[2]; Human breast adenocarcinoma humano MCF-7,86 ± 8
same,Mean tumor volume,[2]; Human breast carcinoma MDA-MB-468,77 ± 9
same,Mean tumor volume,[2]; Human breast carcinoma MT-3,87 ± 12
same,Mean tumor volume,[2]; Human choriocarcinoma AC-1M32,84 ± 1
same,Mean tumor volume,[2]; Human colon carcinoma SW-403,78 ± 7
same,Mean tumor volume,[2]; Human endometrial carcinoma AN3-CA,82 ± 3
same,Mean tumor volume,[2]; Human endometrial stromal sarcoma ESS-1,101 ± 5
same,Mean tumor volume,[2]; Human folicular thyroid carcinoma TT2609-C02,112 ± 5
same,Mean tumor volume,[2]; Human gastric adenocarcinoma 23132/87,83 ± 4
same,Mean tumor volume,[2]; Human glioma GAMG,102 ± 4
same,Mean tumor volume,[2]; Human lung carcinoma A-427,102 ± 8
same,Mean tumor volume,[2]; Human lung carcinoma DV-90,99 ± 5
same,Mean tumor volume,[2]; Human lymphoblastic leukemia T BE-13,101 ± 4
same,Mean tumor volume,[2]; Human malignant fibrous histiocytoma U-2197,107 ± 2
same,Mean tumor volume,[2]; Human melanoma MEL HO,102 ± 9
same,Mean tumor volume,[2]; Human multiple myeloma COLO-677,104 ± 6
same,Mean tumor volume,[2]; Human neuroblastoma KELLY,112 ± 5
same,Mean tumor volume,[2]; Human neuroblastoma bone marrow SKN-BE 2,103 ± 4
same,Mean tumor volume,[2]; Human osteosarcoma CAL-72,106 ± 7
same,Mean tumor volume,[2]; Human ovarian adenocarcinoma EFO-27,88 ± 6
same,Mean tumor volume,[2]; Human ovarian carcinoma COLO-704,97 ± 6
same,Mean tumor volume,[2]; Human pancretic adenocarcinoma CAPAN-1,73 ± 8
same,Mean tumor volume,[2]; Human pancretic adenocarcinoma PA-TU 8902,75 ± 6
same,Mean tumor volume,[2]; Human papillary thyroid carcinoma metastasizing B-CPAP,106 ± 4
same,Mean tumor volume,[2]; Human prostate carcinoma 22RV1,98 ± 4
same,Mean tumor volume,[2]; Human retinoblastoma WERI-Rb-1,101 ± 5
same,Mean tumor volume,[2]; Human thyroid carcinoma 8505C,99 ± 9
same,Mean tumor volume,[2]; Human uterine cervix carcinoma KB,112 ± 1
same,Mean tumor volume,"[2]; Melanoma humano, metástasis en ganglio linfático COLO 858",99 ± 5
same,Mean tumor volume,[2]; Sarcoma human Edwing MHH-ES-1,97 ± 9
same,Mean tumor volume,[2]; Transitional Carcinoma of human urinary bladder RT-4,101 ± 3
same,cells expressing MMP-3,[3],0%
same,cells expressing MMP-7,[3],0%
same,cells expressing MMP-9,[3],0%
same,cells expressing MMP-11,[3],0%
same,cells expressing MMP-13,[3],0%
same,cells expressing MMP-14,[3],0%
same,cells expressing SPARC,[3],0%
same,cells expressing TGF-α,[3],0%
same,cells expressing TGF-β1,[3],0%
same,cells expressing TGF-β2,[3],0%
same,cells expressing TGF-β3,[3],0%
same,PHF cells expressing MMP-3,[4],0%
same,PHF cells expressing MMP-7,[4],0%
same,PHF cells expressing MMP-9,[4],0%
same,PHF cells expressing MMP-11,[4],0%
same,PHF cells expressing MMP-13,[4],0%
same,PHF cells expressing MMP-14,[4],0%
same,PHF cells expressing SPARC,[4],0%
same,PHF cells expressing TGF-α,[4],0%
same,PHF cells expressing TGF-β1,[4],0%
same,PHF cells expressing TGF-β2,[4],0%
same,PHF cells expressing TGF-β3,[4],0%
same,PHF cells expressing MMP-3,[5],0%
same,PHF cells expressing MMP-7,[5],0%
same,PHF cells expressing MMP-9,[5],0%
same,PHF cells expressing MMP-11,[5],0%
same,PHF cells expressing MMP-13,[5],0%
same,PHF cells expressing MMP-14,[5],0%
same,PHF cells expressing SPARC,[5],0%
same,PHF cells expressing TGF-α,[5],0%
same,PHF cells expressing TGF-β1,[5],0%
same,PHF cells expressing TGF-β2,[5],0%
same,PHF cells expressing TGF-β3,[5],0%
same,PHF cells expressing MMP-3,[6],0%
same,PHF cells expressing MMP-7,[6],0%
same,PHF cells expressing MMP-9,[6],0%
same,PHF cells expressing MMP-11,[6],0%
same,PHF cells expressing MMP-13,[6],0%
same,PHF cells expressing MMP-14,[6],0%
same,PHF cells expressing SPARC,[6],0%
same,PHF cells expressing TGF-α,[6],0%
same,PHF cells expressing TGF-β1,[6],0%
same,PHF cells expressing TGF-β2,[6],0%
same,PHF cells expressing TGF-β3,[6],0%
same,cells expressing MMP-3,[7],0%
same,cells expressing MMP-7,[7],0%
same,cells expressing MMP-9,[7],0%
same,cells expressing MMP-11,[7],0%
same,cells expressing MMP-13,[7],0%
same,cells expressing MMP-14,[7],0%
same,cells expressing SPARC,[7],0%
same,cells expressing TGF-α,[7],0%
same,cells expressing TGF-β1,[7],0%
same,cells expressing TGF-β2,[7],0%
same,cells expressing TGF-β3,[7],0%
